Experimental data reported in patent publication US20210156844A1, “TMEM16A Modulation for Diagnostic or Therapeutic Use in Pulmonary Hypertension (PH)” (Bayer Aktiengesellschaft, priority 2017, published 2021).

Tested on: hypoxia-exposed mice
Experiment: Chronic hypoxia-induced mouse model of PH, slow-release pellets
Assay type: in vivo
From the text: The experimental protocol is depicted in FIG. 12A. Male C57BL/6J mice (Charles River) at the age of 10 weeks were either placed into a hypoxic chamber (FiO2=0.1, n=16) for 4 weeks, or kept at normoxic conditions (control group, FiO2=0.21, n=8). According to the reports of Fagan et al. (Fagan, K A, et al. Am. J. Physiol. Lung Cell. Mol. Physiol. (2004) 287, L656-664) and Tuscherer et al. (Tuchscherer, H A, et al., J. Biomech. (2007) 40, 993-1001), a significant increase in the right ventricular systolic pressure (RVSP) and PA muscularization can be observed already after 14 days of hypoxia exposure. Therefore, mice subjected to hypoxia were randomized into two groups at the end of the second week. Eight mice received a subcutaneous slow-release pellet containing benzbromarone (Innovative Research of America, Sarasota Fla., USA) (HOX+BBR) and the other 8 mice received pellets with vehicle (HOX+Veh). The pellets ensured a stable blood concentration of the drug/vehicle over the next two weeks. At the end of week 4, all mice were subjected to in vivo hemodynamic measurements, followed by sacrifice and organ collection.
In mice, in vivo hemodynamics was performed under constant inhalation of 2% isoflurane/oxygen, using the closed chest technique through a small incision on the submandibular area. Body temperature was monitored and maintained at 37±1° C. A limb-lead ECG was recorded and the heart rate was kept constant to avoid changes in the sympathetic tone during the experiment. The right ventricle (RV) was catheterized via the right jugular vein using a 1.4 F Millar catheter (SPR-671, Millar, Houston Tex., USA) and right ventricular systolic pressure (RVSP) was measured continuously. Another catheter was inserted into the left carotid artery to monitor systemic blood pressure. After recording of stable values, the experiment was either continued with the assessment of the acute hemodynamic effects of benzbromarone (described above), or mice were sacrificed immediately for organ collection. […]
At the end of the hemodynamic measurements, animals were exsanguinated and the heart and lungs were isolated. […] Right ventricular hypertrophy was assessed by calculating the Fulton index, defined as RV weight/(LV+S weight).
Paraffin-embedded mouse and rat lung tissues were cut to 2 μm thin sections. Double immunohistochemical staining and quantification of the non-muscularized and muscularized arteries were made as previously described (Crnkovic, S, et al., Respir. Physiol. Neurobiol. (2011) 179, 342-345). […] Vessel remodeling in lung sections was quantified using semi-automated image analysis software (Visiopharm, Hoersholm, Denmark). […] The percentage of non-muscularized and muscularized pulmonary arteries, relative to the total number of pulmonary arteries, was calculated. […]

[1] = subcutaneous slow-release pellet weeks 2-4 of 4 weeks hypoxia, vs HOX+Veh

Compound: CCc1oc2ccccc2c1C(=O)c1cc(Br)c(O)c(Br)c1 [benzbromarone, (2-Ethyl-3-benzofuranyl)-(3,5-dibrom-4-hydroxyphenyl)ketone]
- PCNA positive nuclei in the medial layer of the PA (hypoxic mice, lung sections (not shown)): reduced number
- hypoxia-induced muscularization of pulmonary arteries (ratio of fully vs non-muscularised arteries compared to HOX+Veh): reversed
- Fulton index [1]: lowered
- RVSP [1]: lowered
